Measurements as given in ChEMBL document CHEMBL1146423, “Adenosine-1 active ligands: cirsimarin, a flavone glycoside from Microtea debilis” (J Nat Prod, 1997).
pKi: −log10 of the molar value. Calls of active or inactive are those of the source. No cut-off for these calls is given here.

Columns and labels:
Type in all cases: cell membranes
[1] = target: T1, Adenosine receptor A1 (Rattus norvegicus) (UniProt P25099); test: Displacement of [3H]DPCPX from adenosine A1 receptor in rat forebrain membrane assessed as fraction of receptor bound radioligand at 100 ug/mL
T1 sequence (whole entry): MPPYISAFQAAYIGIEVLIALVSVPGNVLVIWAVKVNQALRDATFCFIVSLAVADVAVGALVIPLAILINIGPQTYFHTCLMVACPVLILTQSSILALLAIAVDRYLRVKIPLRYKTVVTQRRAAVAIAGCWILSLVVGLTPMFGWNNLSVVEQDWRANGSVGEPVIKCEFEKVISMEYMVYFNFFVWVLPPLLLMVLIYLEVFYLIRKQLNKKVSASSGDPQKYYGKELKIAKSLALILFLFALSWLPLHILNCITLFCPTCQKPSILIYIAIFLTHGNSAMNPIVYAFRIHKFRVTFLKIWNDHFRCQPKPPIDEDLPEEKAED

Adenosine receptor A1 = target: T2, Adenosine receptor A1 (Rattus norvegicus, UniProt P25099); test: Displacement of [3H]DPCPX from adenosine A1 receptor in rat forebrain membrane
T2 sequence (P25099 whole entry): T1 sequence (whole entry)

[2] = target: T1, Adenosine receptor A1 (Rattus norvegicus); test: Displacement of [3H]DPCPX from adenosine A1 receptor in rat forebrain membrane in presence of GTP

SMILES | Activity [1] [%] | pKi (Adenosine receptor A1) | Activity [2]
O=c1cc(-c2ccc(O)cc2)oc2cc(O)cc(O)c12 | 50 |  | 
O=c1cc(-c2ccc(O)cc2)oc2c([C@@H]3O[C@H](CO)[C@@H](O)[C@H](O)[C@H]3O)c(O)cc(O)c12 | 103 |  | 
COc1cc2oc(-c3ccc(O[C@@H]4O[C@H](CO)[C@@H](O)[C@H](O)[C@H]4O)cc3)cc(=O)c2c(O)c1OC [CIRSIMARIN] | 2 | 5.49 | Active
O=c1c(O)c(-c2ccc(O)cc2)oc2cc(O)cc(O)c12 | 18 |  | 
C[C@@H]1O[C@@H](OC[C@H]2O[C@@H](Oc3c(-c4ccc(O)cc4)oc4cc(O)cc(O)c4c3=O)[C@H](O)[C@@H](O)[C@@H]2O)[C@H](O)[C@H](O)[C@H]1O | 37 |  | 
C[C@@H]1O[C@@H](OC[C@H]2O[C@@H](Oc3c(-c4ccc(O)c(O)c4)oc4cc(O)cc(O)c4c3=O)[C@H](O)[C@@H](O)[C@@H]2O)[C@H](O)[C@H](O)[C@H]1O | 103 |  | 
C[C@@H]1O[C@@H](Oc2c(-c3ccc(O)c(O)c3)oc3cc(O)cc(O)c3c2=O)[C@H](O)[C@H](O)[C@H]1O (stereo in doubt; 6) | 50 |  | 
COc1cc2oc(-c3ccc(O)cc3)cc(=O)c2c(O)c1OC | 48 |  | 
C[C@@H]1O[C@@H](Oc2c(-c3ccc(O)c(O)c3)oc3cc(O)cc(O)c3c2=O)[C@H](O)[C@H](O)[C@H]1O (stereo in doubt; 8) | 58 |  | 
COc1cc(-c2cc(=O)c3c(O)cc(O[C@@H]4O[C@H](CO)[C@@H](O)[C@H](O)[C@H]4O[C@@H]4O[C@@H](C)[C@H](O)[C@@H](O)[C@H]4O)cc3o2)ccc1O | 94 |  | 
O=c1c(O[C@@H]2O[C@H](CO)[C@H](O)[C@H](O)[C@H]2O)c(-c2ccc(O)c(O)c2)oc2cc(O)cc(O)c12 | 86 |  | 
O=c1c(O)c(-c2cc(O)c(O)c(O)c2)oc2cc(O)cc(O)c12 | 24 |  | 
